In patent US20230338285A1, “PHARMACEUTICAL COMPOSITION COMPRISING HYDROXYCHLOROQUINE AND USES THEREOF” (priority 2020, published 2023):
Like-named read-outs stand apart in the source and are kept apart here.

What was measured:
[1] = Solubility in propylene glycol and solvent mixtures by LC-HR-MS; assay type: physicochemical; settings: for Accuracy (ratio of measured concentration to calculated concentration): propylene glycol, 40° C.
Method: Chloroquine and hydroxychloroquine were synthesized according to published procedures at WuXi AppTec (Wuhan, China). […] The solubility of HCQ in propylene glycol (PG) was evaluated by preparing formulations at various concentrations and assessing their solubility by performing liquid chromatography-high resolution-mass spectrometry (LC-HR-MS). The solubility of HCQ in PG was measured at 40° C. and atmospheric pressure (~100 kPa) -Table 1a.
The solubility of HCQ in different solvent mixtures comprising propylene glycol (PG); glycerol and/or water was evaluated by preparing formulations and assessing the solubility of HCQ by performing liquid chromatography-high resolution-mass spectrometry (LC-HR-MS) as shown in Table 1b.

[2] = system: SARS-CoV-2 clinically isolated strain; settings: cited from earlier work; for EC50: Vero cells, Yao et al.
[3] = Thermal decomposition during thermal aerosolization (LC-HR-MS); assay type: physicochemical; settings: LC-HR-MS of aerosol trapped on Cambridge pad filter
Method: Using the described aerosol generation and characterization setup, the aerosol produced from the device was pushed through the Cambridge filter pad connected to an impinger filled with 5 mL of ethanol to assess the transfer amount of hydroxychloroquine from the liquid to the aerosol. Compound extraction from the Cambridge filter pads was performed by adding 5 mL of ethanol from the impinger and another 5 mL of fresh ethanol to the filter pad. The two fractions were combined (total volume of 10 mL) for quantification. Chemical analyses for drug solubility and transfer rate assessment were performed by liquid chromatography equipped with a HILIC BEH amide column (50 × 3 mm, 1.7 µm, Waters, Manchester, UK) coupled to high resolution accurate mass spectrometry (Vanquish Duo - Q Exactive HF system, LC-HR-MS, ThermoFisher Scientific, Waltham, MA, USA). Mobile phases were composed of acetonitrile containing 0.1% formic acid and 10 mM ammonium formate. Samples were diluted to fit the calibration curve built from 9-calibrant levels (5-100 ng/mL). A volume of 5 µL diluted solution was injected. Mass spectrometry detection was realized in positive electrospray ionization with a mass resolution of 60,000 by scanning full scan mass from m/z 50-350.

[4] = Aerosol particle size distribution (Aerodynamic Particle Sizer); assay type: physicochemical; settings: thermal aerosol from 100 mg/mL in propylene glycol, heater 200-220° C.
Method: A liquid formulation containing a solution of hydroxychloroquine in propylene glycol at a concentration of 100 mg/mL was prepared and filled into a consumable cartridge.
The liquid formulation was nebulized using a device comprising a mesh heating element as described in WO2018153608 (A1). Aerosol from the liquid formulation was generated by thermal aerosolization. The temperature of the heater was maintained between 200-220° C. A programmable dual syringe pump (PDSP) with a simulated inhalation regimen of 55 mL delivered in 3 sec puff duration and 30 sec interval (including the subsequent discharge from the pump during piston down stroke) was used to transfer the aerosol. The PDSP pump was attached to a SUPER SESI (Fossilion Technologies, Madrid, SP) interfaced with Q Exactive HF system (Thermo Fisher Scientific, Waltham, MA, USA) as shown in FIG. 2.
The particle size distribution of the aerosols was measured using the TSI 3321 Aerodynamic Particle Sizer (APS, TSI Incorporated, Shoreview, MN, USA). To reach the operational flowrate of 5 L/min and to stay within the limits of detection concerning large particle number densities obtained in the experiment, the […] was connected with a 3302A Aerosol Diluter (TSI Incorporated), upstream of the APS using a 30 cm conductive tube with a 1-cm inner diameter (FIG. 3). […]

[5] = system: 2019-nCoV; settings: block of COVID-19 infection in vitro, Wang et al.; read-out: half-maximal effective concentration (EC50); cited from earlier work

Compound	Solubility ([1]; Mix 1: propylene glycol 75%, glycerol 20%, water 5%) [mg/mL]	Solubility ([1]; Mix 2: propylene glycol 75%, glycerol 15%, water 10%) [mg/mL]	Solubility ([1]; Mix 3: propylene glycol 45%, glycerol 45%, water 10%) [mg/mL]	Solubility ([1]; Mix 4: propylene glycol 90%, glycerol 10%, water 0%) [mg/mL]	Solubility ([1]; Mix 5: propylene glycol 90%, glycerol 0%, water 10%) [mg/mL]	Solubility ([1]; Mix 6: propylene glycol 85%, glycerol 0%, water 15%) [mg/mL]	Solubility ([1]; Mix 7: propylene glycol 95%, glycerol 0%, water 5%) [mg/mL]	Solubility ([1]; Mix 8: propylene glycol 100, glycerol 0%, water 0%) [mg/mL]	Accuracy (ratio of measured concentration to calculated concentration) ([1]; calculated concentration 1.3 mg/mL) [%]	Accuracy (ratio of measured concentration to calculated concentration) ([1]; calculated concentration 10.2 mg/mL) [%]	Accuracy (ratio of measured concentration to calculated concentration) ([1]; calculated concentration 20.9 mg/mL) [%]	Accuracy (ratio of measured concentration to calculated concentration) ([1]; calculated concentration 40.6 mg/mL) [%]	Accuracy (ratio of measured concentration to calculated concentration) ([1]; calculated concentration 100.6 mg/mL) [%]	EC50 ([2]; 24 hours) [µM]	EC50 ([2]; 48 hours) [µM]	in vitro EC50 ([2]; value from Yao et al.) [µg/mL]	in vitro EC90 ([2]; value from Yao et al.) [µg/mL]	decomposition during thermal aerosolization [3]	median aerodynamic diameter of aerosol particles [4] [µm]	EC50 [5] [µM]
hydroxychloroquine	151	141	42	150	324	261	322	139	78	103	104	92	96	6.14	0.72	0.242	1.68	no decomposition	1.3	
CCN(CC)CCCC(C)Nc1ccnc2cc(Cl)ccc12 (centres unmarked) [chloroquine]																				1.13
